Data from the NIST ThermoML archive (doi:10.1016/j.jct.2017.07.024).
Numbers after ± are expanded uncertainties.

Key:
[1] = for surface tension liquid-gas: Maximal bubble pressure; for mass density: 100 kPa, Liquid, Vibrating tube method
[2] = refractive index (Na D-line) (dimensionless); conditions: 100 kPa, Liquid, Standard Abbe refractometry

| SMILES | surface tension liquid-gas ([1]; 288.15 K) [mN/m] | mass density ([1]; 288.15 K) [kg/m3] | surface tension liquid-gas ([1]; 293.15 K) [mN/m] | mass density ([1]; 293.15 K) [kg/m3] | surface tension liquid-gas ([1]; 298.15 K) [mN/m] | mass density ([1]; 298.15 K) [kg/m3] | surface tension liquid-gas ([1]; 303.15 K) [mN/m] | mass density ([1]; 303.15 K) [kg/m3] | surface tension liquid-gas ([1]; 308.15 K) [mN/m] | mass density ([1]; 308.15 K) [kg/m3] | surface tension liquid-gas ([1]; 313.15 K) [mN/m] | mass density ([1]; 313.15 K) [kg/m3] | surface tension liquid-gas ([1]; 318.15 K) [mN/m] | mass density ([1]; 318.15 K) [kg/m3] | surface tension liquid-gas ([1]; 323.15 K) [mN/m] | mass density ([1]; 323.15 K) [kg/m3] | surface tension liquid-gas ([1]; 328.15 K) [mN/m] | mass density ([1]; 328.15 K) [kg/m3] | refractive index ([2]; 288.15 K) | refractive index ([2]; 293.15 K) | further results |
| --- | --- | --- | --- | --- | --- | --- | --- | --- | --- | --- | --- | --- | --- | --- | --- | --- | --- | --- | --- | --- | --- |
| CCCn1cc[n+](C)c1.C[C@@H](O)[C@H](N)C(=O)[O-] [1-propyl-3-methylimidazolium DL-threoninate] | 41.4 ± 0.5 | 1151.33 ± 0.7 | 41.1 ± 0.5 | 1148.8 ± 0.7 | 40.7 ± 0.5 | 1144.52 ± 0.7 | 40.4 ± 0.5 | 1141.13 ± 0.7 | 40.1 ± 0.5 | 1137.76 ± 0.69 | 39.8 ± 0.5 | 1134.38 ± 0.69 | 39.4 ± 0.5 | 1130.9 ± 0.69 | 39.1 ± 0.5 | 1127.5 ± 0.69 | 38.7 ± 0.5 | 1124.07 ± 0.69 | 1.5147 ± 0.0013 | 1.5131 ± 0.0013 | refractive index ([2]; 298.15 K): 1.5116 ± 0.0013; refractive index ([2]; 303.15 K): 1.5101 ± 0.0013; refractive index ([2]; 308.15 K): 1.5086 ± 0.0013; refractive index ([2]; 313.15 K): 1.5071 ± 0.0013; refractive index ([2]; 318.15 K): 1.5055 ± 0.0013; refractive index ([2]; 323.15 K): 1.5039 ± 0.0013; refractive index ([2]; 328.15 K): 1.5026 ± 0.0013 |
| CCCCCn1cc[n+](C)c1.C[C@@H](O)[C@H](N)C(=O)[O-] [1-pentyl-3-methylimidazolium DL-threoninate] | 38.2 ± 0.5 | 1107.7 ± 0.68 | 37.8 ± 0.5 | 1104.39 ± 0.68 | 37.6 ± 0.5 | 1101.08 ± 0.68 | 37.2 ± 0.5 | 1097.75 ± 0.68 | 36.9 ± 0.5 | 1094.43 ± 0.68 | 36.6 ± 0.5 | 1091.16 ± 0.68 | 36.2 ± 0.5 | 1087.7 ± 0.68 | 35.9 ± 0.5 | 1084.55 ± 0.68 | 35.6 ± 0.5 | 1081.25 ± 0.68 | 1.508 ± 0.0013 | 1.5065 ± 0.0013 | refractive index ([2]; 298.15 K): 1.5048 ± 0.0013; refractive index ([2]; 303.15 K): 1.5032 ± 0.0013; refractive index ([2]; 308.15 K): 1.5018 ± 0.0013; refractive index ([2]; 313.15 K): 1.5001 ± 0.0013; refractive index ([2]; 318.15 K): 1.4987 ± 0.0013; refractive index ([2]; 323.15 K): 1.497 ± 0.0013; refractive index ([2]; 328.15 K): 1.4955 ± 0.0013 |
| CCCCCCn1cc[n+](C)c1.C[C@@H](O)[C@H](N)C(=O)[O-] [1-hexyl-3-methylimidazolium DL-threoninate] | 37 ± 0.5 | 1089.98 ± 0.68 | 36.6 ± 0.5 | 1086.67 ± 0.68 | 36.3 ± 0.5 | 1083.36 ± 0.68 | 36 ± 0.5 | 1080.02 ± 0.68 | 35.7 ± 0.5 | 1076.7 ± 0.68 | 35.4 ± 0.5 | 1073.42 ± 0.67 | 35 ± 0.5 | 1069.96 ± 0.67 | 34.7 ± 0.5 | 1066.82 ± 0.67 | 34.4 ± 0.5 | 1063.52 ± 0.67 | 1.5049 ± 0.0013 | 1.5033 ± 0.0013 | refractive index ([2]; 298.15 K): 1.5019 ± 0.0013; refractive index ([2]; 303.15 K): 1.5001 ± 0.0013; refractive index ([2]; 308.15 K): 1.4988 ± 0.0013; refractive index ([2]; 313.15 K): 1.4971 ± 0.0013; refractive index ([2]; 318.15 K): 1.4957 ± 0.0013; refractive index ([2]; 323.15 K): 1.494 ± 0.0013; refractive index ([2]; 328.15 K): 1.4925 ± 0.0013 |
